Consider eight molecules from PubChem BioAssay (NCI).

Common to all, as to assay: NCI tumour cell line growth inhibition, 48 h
In assay [1] the test system is ACHN renal.
The subject of assay [2] is COLO 205 colon.
The test system of assay [3] is HT29 colon.
Assay [4] concerns NCI-H226 lung.
Assay [5] relates to NCI-H23 lung.
Assay [6] has as its system NCI-H522 lung.
In assay [7] the test system is SF-268 CNS.
Assay [8] relates to SK-MEL-5 melanoma.
Assay [9] relates to SNB-75 CNS.
In assay [10] the test system is SR leukemia.

“And” between values parts separate entries of the source, which are not always exact repeats. Identical values can stand only once.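 Exposure lasted 48 hours, with cells grown in 96-well plates and compounds tested at five concentrations. GI50 = concentration required for 50% inhibition of growth. TGI is the concentration that stops growth completely.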 Some results are limits rather than exact numbers.

Consider `CCN(CC)CCC(=O)O[C@H]1CC[C@H](CC(C)[C@H]2CC(=O)C(C)C=C(C)[C@H](OC(=O)CCN(CC)CC)C(OC)C(=O)[C@@H](C)CC(C)/C=C/C=C/C=C(C)C(OC)CC3CC[C@H](C)[C@](O)(O3)C(=O)C(=O)N3CCCCC3C(=O)O2)CC1OC` (some centres undefined), for which the TGI was 2620 nM and 4480 nM in [1]; 2800 nM and 2490 nM in assay [2]; 2570 nM and 2440 nM in [3]; 3680 nM and 3340 nM in assay [4]; > 10000 nM and 3530 nM in assay [5]; 1980 nM and 1890 nM in assay [6]. Moreover, the TGI is 3060 nM and 3990 nM in [7]; 1850 nM and 2160 nM in assay [8]; 1770 nM and 550 nM in assay [9]; 3460 nM and 618 nM in assay [10]. Besides, the GI50 was 1040 nM in assay [2]; 1070 nM in [3]; 1210 nM in assay [4]; 1280 nM in assay [5]; 17 nM in assay [6]; 1160 nM in [7]. Further, the values for the GI50 in assay [8] and in assay [9] were 40.1 nM and 100 nM, respectively.
In the case of `NS(=O)(=O)c1ccc(N2N=C(c3cccs3)CC2c2ccccc2O)cc1` (centres undefined), the GI50 in assay [1] is 2900 nM; in assay [2], 577 nM; in assay [3] it was 897 nM; in assay [4] it was 3400 nM; in [5], 1300 nM; in assay [6] it was 644 nM. The GI50 is 1160 nM in assay [7], 1470 nM in [8], 437 nM in assay [9] and 1360 nM in assay [10]. The TGI in [1] worked out at 13000 nM; in [2], 1880 nM; in [3], 2390 nM; in [4] it was 17400 nM; in [5], 8470 nM; in [6] it was 1510 nM. In addition, the TGI in [7] is 4480 nM; in [8], 5680 nM; in [9] it was 1760 nM; in [10], above 33300 nM.
Turning to `O=C1C=C(OCCCl)C(=O)c2c(O)ccc(O)c21`, the GI50 in assay [1] is 1890 nM; in [2], 592 nM; in assay [3] it was 1120 nM; in assay [5], 1500 nM; in [6], 1570 nM; in assay [7], 3980 nM. In [9], the GI50 is 2100 nM. For the same molecule, the TGI in assay [1] was 2890 nM and 4950 nM; in [2], 338 nM and 1920 nM; in [3], 1030 nM and 2890 nM; in assay [4], 5070 nM and 4640 nM; in [5], 503 nM and 3220 nM; in assay [6], 4440 nM and 3140 nM. The TGI was 2600 nM and 15300 nM in assay [7]; 321 nM and 299 nM in [8]; 970 nM and 3740 nM in assay [9]; 3220 nM in [10].
For the molecule `C=C1C(=O)O[C@H]2[C@H]1CC/C(CNC(=O)/C=C/c1ccc(Cl)cc1Cl)=C\CC[C@@]1(C)O[C@@H]21`, the GI50 in [1] is 1130 nM; in assay [2], 1140 nM; in [3], 841 nM; in [4], 2330 nM; in [5] it was 1400 nM; in [6] it was 1090 nM. In addition, the GI50 in [7] was 1090 nM; in assay [8] it was 1630 nM; in assay [9], 1740 nM; in assay [10] it was 232 nM. Further, the TGI was determined as 2480 nM in [1]; 2950 nM in assay [2]; 2490 nM in [3]; 5720 nM in assay [4]; 3200 nM in [5]; 2510 nM in assay [6]. Besides, the TGI is 2670 nM in assay [7], 3020 nM in assay [8], 10300 nM in assay [9] and 1890 nM in assay [10].
Regarding `COc1ccc2c(c1)C=C1CSCC3=Cc4cc(OC)ccc4OC13O2`, the GI50 in assay [1] was 863 nM; in assay [2] it was 292 nM; in assay [3], 340 nM; in assay [5], 1010 nM; in assay [6], 232 nM; in [7], 2860 nM. The GI50 in assay [8] is 410 nM; in assay [9], 183 nM; in assay [10], 164 nM. For the same molecule, the TGI in assay [1] is above 100000 nM; in assay [2], 917 nM; in assay [3], above 100000 nM; in assay [4] it was above 100000 nM; in assay [5], above 100000 nM; in [6] it was 937 nM. The TGI is above 100000 nM in [7], above 100000 nM in assay [8], 598 nM in assay [9] and above 100000 nM in [10].
Take `O=C1COCCN1c1ccc(NCc2cn(C(=O)c3ccc(Cl)cc3)c3ccccc23)cc1`: the GI50 was 3790 nM in assay [1]; 3280 nM in [2]; 3790 nM in [3]; 159 nM in assay [4]; 3790 nM in assay [5]; 5120 nM in assay [6]. The GI50 in assay [7] was 13400 nM; in assay [8] it was 4100 nM; in [9], 2600 nM; in assay [10], 3080 nM. Also, the TGI was 27500 nM in assay [1]; 21800 nM in assay [2]; above 100000 nM in [3]; 543 nM in [4]; 52100 nM in [5]; 35900 nM in assay [6]. Further, the TGI in assay [7] is 95100 nM; in assay [8] it was 16300 nM; in assay [9], 52600 nM; in [10] it was above 100000 nM.
Consider `NNC(=S)N/N=C(/C(=O)Nc1ccc([N+](=O)[O-])cc1)c1nc2ccc([N+](=O)[O-])cc2[nH]c1=O`, for which the TGI in assay [1], in assay [2], in assay [3], in [4], in assay [5] and in assay [6] was above 100000 nM in each case. Also, the TGI in assay [7], in assay [8], in assay [9] and in [10] was above 100000 nM throughout.
`[O-][n+]1c2cc(CN3CCOCC3)c(CN3CCOCC3)cc2[n+]([O-])c2c(O)cccc21`: the TGI in [1] came to 26300 nM; in assay [2], 11100 nM; in [3], 9180 nM; in assay [4], 30900 nM; in assay [5], 8880 nM; in assay [6], 6230 nM. Moreover, the TGI in [7] is 3600 nM; in [8], above 37900 nM; in assay [9] it was 21300 nM; in assay [10], 701 nM.
